Laboratory results taken from article PMC12794186, “Covalent Alkynylpyridopyrimidinones Targeting Cysteine 775 of the Epidermal Growth Factor Receptor Overcome Resistance to Current Therapies” (Journal of Medicinal Chemistry, 2025).
Read-outs that look alike come from different tables or passages of the source.

What was measured:
[1] = system: panel of 394 kinases; assay: Kinase selectivity panel, summary; assay type: binding; conditions: 1.0 μM
[2] = system: pERK1/2 phosphorylation in H1975 (L858R, T790M) cells; assay: Western blot of ERK1/2 phosphorylation; assay type: cell-based; conditions: H1975, 4 h exposure
Description: Cells, seeded on the previous day, were incubated with test compound at the indicated concentrations or DMSO (0.1%) for 4 h. Cells were lysed in Phosphosafe extraction buffer (Merck, Cat. No. 71296) combined with cOmplete Protease Inhibitor Cocktail (Merck, Cat. No. 4693116001) prepared as per the manufacturer’s instructions. Protein concentrations were determined using BCA Protein Assay Kit (Thermo Scientific, Cat. No. 23227). Preparation of lysates and Western blotting was performed twice as independent experiments.
Samples were prepared by diluting lysates in PBS to the desired concentration and before adding 4X XT sample buffer. Samples were then denatured at 98 °C for 5 min and then centrifuged to remove the residue. […] The quality of transfer was assessed using Ponceau S Stain (Sigma-Aldrich Cat. No. p7170).
Primary antibodies raised to EGFR (CST Cat. No. 4267), phospho-EGFR (CST Cat. No. 3777), phospho-p44/42 MAPK(ERK1/2) (CST Cat. No. 9101S) and p44/42 MAPK (CST Cat. No. 9102S) were diluted (1:1000) in 5% BSA w/v. Loading control antibodies were prepared in 5% milk w/v with 1× TBS/T (0.1 v/v) solution at a determined optimum concentration.
Proteins were detected using Clarity ECL substrate (Bio-Rad) and imaged using a Licor Odyssey FC.

[3] = target: T1, wild-type EGFR (WT-EGFR) (Homo sapiens, UniProt P00533); assay: TR-FRET fluorescent probe displacement assay; assay type: binding; conditions: TR-FRET, n > 3
T1 construct: made in house; host or cells: SF9 insect cells (MultiBac)
Description: Compounds (dissolved to 100 mM in DMSO) were dispensed into black low volume 384 well assay plates (Corning) over a final concentration range of 100,000, 30,000, 10,000, 3000, 1000, 300, 100, 30, 10, and 3 nM using an Echo 550 (Labcyte). Positive control compound and DMSO as a negative control were dispensed into the first and last well, respectively. Each well was backfilled with DMSO to a final volume of 200 nL, resulting in final assay DMSO concentrations of 1%. […] The data were analyzed using Graphpad Prism/Dotmatics Studies Software. Assays conducted in technical replicate and repeated as a biological duplicate.

[4] = system: EGFR phosphorylation (Tyr1068) in H1975 (L858R, T790M) cells; assay: HTRF cellular EGFR phosphorylation; assay type: cell-based; conditions: Homo sapiens, NCI-H1975; HTRF, mean ± SD of 4 experiments; read-out: H1975 pEGFR IC50
Description: Cells were plated at 20,000 cells per well in 96-well plates and placed at 37 °C with 5% CO2. Compounds were reconstituted in DMSO. Once adhered (after 24 h), cells were treated with compounds at a final concentration of 0.1% DMSO in media. Compounds were added to duplicate wells and incubated 37 °C for 3 h with 5% CO2. For A431 cells 0.5 h before the end of incubation; 100 ng/mL of EGF (Thermo Fisher, Cat. No. PHG0311) was added to all compound-treated cells as well as control. Compound and media were removed from the cells, and then 50 μL of HTRF lysis buffer was added (lysis buffer was diluted from 4× stock to 1× in deionized (DI) water, with 1% blocking agent also added). Cells were lysed on a plate shaker (2000 rpm) for 30 min at room temperature. pEGFR expression was assessed using the Human Phospho-EGFR (Tyr1068) cellular detection kit (Revvity, Cat. No. 64EG1PEH). Total EGFR expression was monitored using the Human Total EGFR cellular detection kit (Revvity, Cat. No. 64NG1PEH) as per the manufacturer’s instructions. […] Results were calculated as the ratio of pEGFR/total EGFR and then the percentage of 0 μM control.

[5] = target: recombinant doubly mutated EGFR L858R, T790M kinase domain (mLT-EGFR) (Homo sapiens, UniProt P00533, L858R/T790M); assay: Kinetic analysis (AssayQuant); assay type: biochemical; conditions: read-out: KI app
Description: Measurement of K I, K inact and K inact/K I was carried out by AssayQuant Technologies inc.

[6] = system: EGFR phosphorylation (Tyr1068) in H1975 (L858R, T790M) cells; assay: Western blot of EGFR phosphorylation; assay type: cell-based; conditions: H1975, 4 h exposure
Description: Cells, seeded on the previous day, were incubated with test compound at the indicated concentrations or DMSO (0.1%) for 4 h. […] Preparation of lysates and Western blotting was performed twice as independent experiments.

[7] = system: BaF3 EGFR del19/T790M cells; assay: Ba/F3 growth inhibition (CellTiter Glo); assay type: cell-based, Murine; conditions: Mus musculus, BaF3, absence of IL-3, 72 h, read-out: dT: del19/T790M GI50
Description: (§1) Growth inhibition in Ba/F3 cell lines were assessed in a 384-well format by CellTiter Glo assay (Promega) using the manufacturer’s recommended protocol. Cells were seeded on the day of compound addition and assessed following 72 h incubation including a vehicle only control. Ba/F3 EGFR-WT cells required supplementation with EGF (100 ng/mL, ThermoFisher, Cat No. PHG0311).

[8] = system: BaF3 EGFR L858R/T790M/C775A cells; assay: Ba/F3 growth inhibition (CellTiter Glo); assay type: cell-based, Murine; conditions: Mus musculus, BaF3, absence of IL-3, 72 h, read-out: LTC2: L858R/T790M/C775A GI50
Description: as §1

[9] = system: BaF3 EGFR WT cells; assay: Ba/F3 growth inhibition (CellTiter Glo); assay type: cell-based, Murine; conditions: Mus musculus, 72 h
Description: as §1

[10] = system: BaF3 EGFR L858R/T790M cells; assay: Ba/F3 growth inhibition (CellTiter Glo); assay type: cell-based, Murine; conditions: BaF3, absence of IL-3, 72 h, read-out: LT: L858R/T790M GI50
Description: as §1

[11] = target: mLTC-EGFR (Homo sapiens, UniProt P00533, C797S/L858R/T790M); assay: Intact protein mass spectrometry, covalent adduct formation; assay type: binding; conditions: intact protein mass spectrometry
[12] = system: FLT3; assay: Kinase selectivity panel; assay type: binding; conditions: 1.0 µM

`C#Cc1cc(=O)n(-c2ccccc2)c2nc(Nc3ccc(N(C)CCN(C)C)cc3)ncc12` [Compound 7, 2-((4-((2-(Dimethylamino)ethyl)(methyl)amino)phenyl)amino)-5-ethynyl-8-phenylpyrido[2,3-d]pyrimidin-7(8H)-one] was tested, and the “number of kinases showing >75% inhibition” value [1] was 10, the “reduction in ERK1/2 phosphorylation (Western blot)” value [2] was “concomitant reduction in ERK1/2 phosphorylation” and the IC50 ([3]; read-out: WT-EGFR IC50) was 200 nM. For the same compound, the IC50 ([3]; read-out: WT-EGFR pIC50 ± std dev (converted)) was 200 nM, the IC50 [4] was 140 ± 21 nM and the Ki [5] was 22 ± 1.3 nM. The “concentration eliciting dose-dependent reduction in EGFR phosphorylation (Western blot)” value [6] was at least 100 nM, the GI50 [7] was 49 ± 6 nM and the GI50 [8] was 1500 nM. The GI50 [9] was 1100 nM, the GI50 [10] was under 100 nM and the GI50 ([10]; Mus musculus, Ba/F3 EGFR, 72 h) was 50 ± 3.2 nM. The “covalent adduct formation, in words” value [11] was “formed only a single adduct” and the “Mean (Percent Control)” value [12] was 15 Percent Control.
